According to patent US12630563B2, “Macrocyclic RIP2-kinase inhibitors” (Oncodesign S.A., priority 2020, dated 2026):
pIC50: −log10 of the molar value.

Biological target: T1, recombinant hRIPK2 protein (kinase domain aa 1-299-His-tagged) (Homo sapiens, UniProt O43353)
T1 construct: kinase domain aa 1-299-His-tagged; purchased Life Technologies PR7829A
Test: RIPK2 AlphaLISA assay (displacement of bead-bound CZC-8004 from hRIPK2)
Assay type: binding
Details: recombinant hRIPK2 kinase domain 10 nM, 2 h at 23° C.
In short: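 His-tagged kinase domain (10 nM, as diluted) was mixed with compound (0.8% DMSO), acceptor beads bearing the probe CZC-8004 and Ni2+ donor beads. After 2 h at 23 °C, AlphaLISA signal was read. Loss of signal reflects displacement of the probe from RIPK2.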

T1 sequence (O43353 1-299): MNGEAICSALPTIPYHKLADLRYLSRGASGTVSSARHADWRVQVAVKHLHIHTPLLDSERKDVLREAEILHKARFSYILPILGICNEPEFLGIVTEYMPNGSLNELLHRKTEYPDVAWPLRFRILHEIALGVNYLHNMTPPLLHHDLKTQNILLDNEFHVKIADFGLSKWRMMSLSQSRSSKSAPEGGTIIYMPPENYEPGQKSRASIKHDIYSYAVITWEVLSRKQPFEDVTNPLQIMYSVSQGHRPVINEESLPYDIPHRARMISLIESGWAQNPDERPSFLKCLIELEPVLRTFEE

Row | SMILES | pIC50
1 | CCO[C@@H]1C[C@H]2COc3ccn4ncc(c4n3)-c3cc(cc(C(=O)N(C)C)c3)NCCN2C1=O [Example 58, (12R,14S)-12-ethoxy-N,N-dimethyl-11-oxo-16-oxa-7,10,20,21,24-pentaazapentacyclo[15.5.2.1^2,6.0^10,^14.0^20,^23]pentacosa-1(23),2(25),3,5,17(24),18,21-heptaene-4-carboxamide] | > 8.00
2 | CCO[C@@H]1C[C@H]2COc3ccn4ncc(c4n3)-c3cc(cc(C(=O)NC)c3)NCCN2C1=O [Example 59, (12R,14S)-12-ethoxy-N-methyl-11-oxo-16-oxa-7,10,20,21,24-pentaazapentacyclo[15.5.2.1^2,6.0^10,^14.0^20,^23]pentacosa-1(23),2(25),3,5,17(24),18,21-heptaene-4-carboxamide] | > 8.00
3 | CCO[C@@H]1C[C@H]2COc3ccn4ncc(c4n3)-c3cc(cc(C(N)=O)c3)NCCN2C1=O [Example 60, (12R,14S)-12-ethoxy-11-oxo-16-oxa-7,10,20,21,24-pentaazapentacyclo[15.5.2.1^2,6.0^10,^14.0^20,^23]pentacosa-1(23),2(25),3,5,17(24),18,21-heptaene-4-carboxamide] | > 8.00
4 | CO[C@@H]1C[C@H]2COc3ccn4ncc(c4n3)-c3cc(cc(C(=O)N(C)CC4CC4)c3)NCCN2C1=O [Example 61, (12R,14S)-N-(cyclopropylmethyl)-12-methoxy-N-methyl-11-oxo-16-oxa-7,10,20,21,24-pentaazapentacyclo[15.5.2.1^2,6.0^10,^14.0^20,^23]pentacosa-1(23),2,4,6(25),17(24),18,21-heptaene-4-carboxamide] | 4.96 to 7.00
5 | CCN(C)C(=O)c1cc2cc(c1)-c1cnn3cc(C)c(nc13)OC[C@@H]1C[C@@H](OC)C(=O)N1CCN2 [Example 62, (12R,14S)-N-ethyl-12-methoxy-N,18-dimethyl-11-oxo-16-oxa-7,10,20,21,24-pentaazapentacyclo[15.5.2.1^2,6.0^10,^14.0^20,^23]pentacosa-1(23),2(25),3,5,17(24),18,21-heptaene-4-carboxamide] | > 8.00
6 | CO[C@@H]1C[C@H]2COc3nc4c(cnn4cc3C)-c3cc(cc(C(=O)N(C)OC)c3)NCCN2C1=O [Example 63, (12R,14S)-N,12-dimethoxy-N,18-dimethyl-11-oxo-16-oxa-7,10,20,21,24-pentaazapentacyclo[15.5.2.1^2,6.0^10,^14.0^20,^23]pentacosa-1(23),2,4,6(25),17(24),18,21-heptaene-4-carboxamide] | > 8.00
7 | CO[C@@H]1C[C@H]2COc3nc4c(cnn4cc3C)-c3cc(CO)cc(c3)NCCN2C1=O [Example 64, (12R,14S)-4-(hydroxymethyl)-12-methoxy-18-methyl-16-oxa-7,10,20,21,24-pentaazapentacyclo[15.5.2.1^2,6.0^1°,^14.0^2°,^23]pentacosa-1(23),2,4,6(25),17(24),18,21-heptaen-11-one] | 7.00 to 8.00
8 | CO[C@@H]1C[C@H]2COc3nc4c(cnn4cc3-c3cnn(C)c3C)-c3cc(F)cc(c3)NCCN2C1=O [Example 68] | > 8.00
9 | CO[C@@H]1C[C@H]2COc3nc4c(cnn4cc3-c3cn(C)nc3C)-c3cc(F)cc(c3)NCCN2C1=O [Example 69] | > 8.00
10 | C#Cc1cc2cc(c1)-c1cnn3ccc(nc13)OC[C@@H]1C[C@@H](OC)C(=O)N1CCN2 [Example 70, (12R,14S)-4-ethynyl-12-methoxy-16-oxa-7,10,20,21,24-pentaazapentacyclo[15.5.2.1^2,6.0^1°,^14.0^2°,^23]pentacosa-1(23),2(25),3,5,17(24),18,21-heptaen-11-one] | > 8.00
11 | C#Cc1cc2cc(c1)-c1cnn3cc(C)c(nc13)OC[C@@H]1C[C@@H](OC)C(=O)N1CCN2 [Example 71] | > 8.00
12 | C#Cc1cc2cc(c1)-c1cnn3ccc(nc13)OC[C@@H]1C[C@@H](OCC)C(=O)N1CCN2 [Example 72, (12R,14S)-12-ethoxy-4-ethynyl-16-oxa-7,10,20,21,24-pentaazapentacyclo[15.5. 2.1^2,6.0^10,^14.0^20,^23]pentacosa-21-heptaen-11-one] | > 8.00
13 | CCOC(=O)N1CCN2C(=O)[C@H](OC)C[C@H]2COc2ccn3ncc(c3n2)-c2cc(F)cc1c2 [Example 73, Ethyl (12R,14S)-4-fluoro-12-methoxy-11-oxo-16-oxa-7,10,20,21,24-pentaazapentacyclo[15.5.2.1^2,6.0^1°,^14.0^2°,^23]pentacosa-1(23),2,4,6(25),17(24),18,21-heptaene-7-carboxylate] | 7.00 to 8.00
14 | CO[C@@H]1C[C@H]2COc3ccn4ncc(c4n3)-c3cc(F)cc(c3)N(C(C)=O)CCN2C1=O [Example 74, (12R,14S)-7-acetyl-4-fluoro-12-methoxy-16-oxa-7,10,20,21,24-pentaazapentacyclo[15.5.2.1^2,6.0^1°,^14.0^2°,^23]pentacosa-1(23),2,4,6(25),17(24),18,21-heptaen-11-one] | 7.00 to 8.00
15 | CO[C@@H]1C[C@H]2COc3ccn4ncc(c4n3)-c3cc(F)cc(c3)N(C)CCN2C1=O [Example 75, (12R,14S)-4-fluoro-12-methoxy-7-methyl-16-oxa-7,10,20,21,24-pentaazapentacyclo[15.5.2.1^2,6.0^1°,^14.0^2°,^23]pentacosa-1(23),2(25),3,5,17(24),18,21-heptaen-11-one] | 7.00 to 8.00
16 | CO[C@@H]1C[C@H]2COc3ccn4ncc(c4n3)-c3cc(cc(-c4ncon4)c3)NCCN2C1=O [Example 76, (12R,14S)-12-methoxy-4-(1,2,4-oxadiazol-3-yl)-16-oxa-7,10,20,21,24-pentaazapentacyclo[15.5.2.1^2,6.0^1°,^14.0^2°,^23]pentacosa-1(23),2(25),3,5,17(24),18,21-heptaen-11-one] | > 8.00
17 | COCCc1cn2ncc3c2nc1OC[C@@H]1C[C@@H](OC)C(=O)N1CCNc1cc(F)cc-3c1 [Example 77, (12R,14S)-4-fluoro-12-methoxy-18-(2-methoxyethyl)-16-oxa-7,10,20,21,24-pentaazapentacyclo[15.5.2.1^2,6.0^1°,^14.0^2°,^23]pentacosa-1(23),2(25),3,5,17(24),18,21-heptaen-11-one] | > 8.00
18 | COCCc1cn2ncc3c2nc1OC[C@@H]1C[C@@H](OC)C(=O)N1CCNc1cc-3cc(-n2cccn2)c1 [Example 78, (12R,14S)-12-methoxy-18-(2-methoxyethyl)-4-(1H-pyrazol-1-yl)-16-oxa-7,10,20,21,24-pentaazapentacyclo[15.5. 2.1^2,6.0^10,^14.0^20,^23]pentacosa-1(23),2(25),3,5,17(24),18, 21-heptaen-11-one] | > 8.00
19 | O=C1[C@H](OC2CC2)C[C@H]2COc3ccn4ncc(c4n3)-c3cc(F)cc(c3)NCCN12 [Example 80, (12R,14S)-12-cyclopropoxy-4-fluoro-16-oxa-7,10,20,21,24-pentaazapentacyclo[15.5.2.1^2,6.0^1°,^14.0^2°,^23]pentacosa-1(23),2(25),3,5,17(24),18,21-heptaen-11-one] | > 8.00

More lines, now with the values ahead:

Row | pIC50 | SMILES
20 | > 8.00 | O=C1[C@H](OC2CC2)C[C@H]2COc3ccn4ncc(c4n3)-c3cc(cc(-n4cccn4)c3)NCCN12 [Example 81, (12R,14S)-12-cyclopropoxy-4-(1H-pyrazol-1-yl)-16-oxa-7,10,20,21,24-pentaazapentacyclo[15.5.2. 1^2,6.0^10,^14.0^20,^23]pentacosa-1(23),2(25),3,5,17(24),18,21-heptaen-11-one]
21 | > 8.00 | O=C1[C@H](O)C[C@H]2COc3ccn4ncc(c4n3)-c3cc(cc(-n4cccn4)c3)NCCN12 [Example 82, (12R,14S)-12-hydroxy-4-(1H-pyrazol-1-yl)-16-oxa-7,10,20,21,24-pentaazapentacyclo[15.5.2. 1^2,6.0^10,^14.0^20,^23]pentacosa-1(23),2(25),3,5,17(24),18,21-heptaen-11-one]
22 | > 8.00 | CO[C@@H]1C[C@H]2COc3ccn4ncc(c4n3)-c3cc(cc(-n4nc(C)cc4C)c3)NCCN2C1=O [Example 83, (12R,14S)-4-(3,5-dimethyl-1H-pyrazol-1-yl)-12-methoxy-16-oxa-7,10,20,21,24-pentaazapentacyclo[15.5.2.1^2,6.0^1°,^14.0^2°,^23]pentacosa-1(23),2(25),3,5,17(24),18,21-heptaen-11-one]
23 | > 8.00 | CO[C@@H]1C[C@H]2COc3ccn4ncc(c4n3)-c3cc(cc(-n4ncc(C)c4C)c3)NCCN2C1=O [Example 84, (12R,14S)-4-(4,5-dimethyl-1H-pyrazol-1-yl)-12-methoxy-16-oxa-7,10,20,21,24-pentaazapentacyclo[15.5.2.1^2,6.0^1°,^14.0^2°,^23]pentacosa-1(23),2(25),3,5,17(24),18,21-heptaen-11-one]
24 | 4.96 to 7.00 | CCO[C@@H]1C[C@@H]2COc3ccn4ncc(c4n3)-c3cc(cc(OC)c3)NCCN2C1=O [Example 87, (12R,14R)-12-ethoxy-4-methoxy-16-oxa-7,10,20,21,24-pentaazapentacyclo[15.5.2.1^2,6.0^10,^14.0^20,^23]pentacosa-1(23),2,4,6(25),17(24),18,21-heptaen-11-one]
25 | > 8.00 | CC#Cc1cc2cc(c1)-c1cnn3ccc(nc13)OC[C@@H]1C[C@@H](OC)C(=O)N1CCN2 [Example 88, (12R,14S)-12-methoxy-4-(prop-1-yn-1-yl)-16-oxa-7,10,20,21,24-pentaazapentacyclo[15.5.2.1^2,6.0^1°,^14.0^2°,^23]pentacosa-1(23),2,4,6(25),17(24),18,21-heptaen-11-one]
26 | > 8.00 | COc1cc2cc(c1)-c1cnn3ccc(nc13)OC[C@@H]1C[C@@H](OC)C(=O)N1CC(C)N2 (stereo partly drawn) [Example 89, (12R,14S)-4,12-dimethoxy-8-methyl-16-oxa-7,10,20,21,24-pentaazapentacyclo[15.5.2.1^2,6.0^1°,^14.0^2°,^23]pentacosa-1(23),2,4,6(25),17(24),18,21-heptaen-11-one]
27 | > 8.00 | COc1cc2cc(c1)-c1cnn3ccc(nc13)OC[C@@H]1C[C@@H](O)C(=O)N1CCN2 [Example 90, (12R,14S)-12-hydroxy-4-methoxy-16-oxa-7,10,20,21,24-pentaazapentacyclo[15.5.2.1^2,6.0^1°,^14.0^2°,^23]pentacosa-1 (23),2,4,6(25),17(24),18,21-heptaen-11-one]
